Data published in ChEMBL document CHEMBL3885861, “Open TG-GATES”.

Species on record: Rattus norvegicus
Assay: Open TG-GATES - Regimen: Single
Type: toxicity, organism-based, Sprague-Dawley
Set-up: regimen Single, gender Male, age 6 weeks
Conditions: in vivo, po, 300 mg/kg, route gavage, dose level Middle; for APTT / Bas / Eos / Fbg / Hb / Ht / Lym / MCH / MCHC / MCV / Mono / Neu / PT / Plat / RBC / Ret / WBC: tissue Blood; for KIDNEY_L / KIDNEY_R / KIDNEY_TOTAL: tissue Kidney; for LIVER: tissue Liver; for A/G / ALP / ALT / AST / BUN / CRE / Ca / Cl / DBIL / GLC / IP / K / LDH / Na / PL / RALB / TBIL / TC / TG / TP / gamma-GTP: tissue Plasma

C[C@H]1O[C@H](O[C@H]2[C@H](O)[C@@H](O)[C@@H](O[C@H]3[C@H](O)[C@@H](O)C(O)O[C@@H]3CO)O[C@@H]2CO)[C@H](O)[C@@H](O)[C@@H]1N[C@H]1C=C(CO)[C@@H](O)[C@H](O)[C@H]1O (some centres not stated) [ACARBOSE]
TERMINAL_BW (3 h): 199.8 g
APTT (3 h): 16.9 s
Bas (3 h): 0%
Eos (3 h): 0.8%
Fbg (3 h): 290.6 mg/dL
Hb (3 h): 13.5 g/dL
Ht (3 h): 41.4%
Lym (3 h): 77.8%
MCH (3 h): 21.2 pg
MCHC (3 h): 32.6%
MCV (3 h): 65.1 fL
Mono (3 h): 2.8%
Neu (3 h): 17.8%
PT (3 h): 13.4 s
Plat (3 h): 115.1 x10_4/uL
RBC (3 h): 636 x10_4/ul
Ret (3 h): 8.7%
WBC (3 h): 82.6 x10_2/uL
KIDNEY_L (3 h): 0.9 g
KIDNEY_R (3 h): 0.9 g
KIDNEY_TOTAL (3 h): 1.9 g
LIVER (3 h): 9 g
A/G (3 h): 0.9
ALP (3 h): 1420.8 IU/L
ALT (3 h): 35.6 IU/L
AST (3 h): 75.4 IU/L
BUN (3 h): 9.8 mg/dL
CRE (3 h): 0.2 mg/dL
Ca (3 h): 10.9 mg/dL
Cl (3 h): 104.6 meq/L
DBIL (3 h): 0.004 mg/dL
GLC (3 h): 172.4 mg/dL
IP (3 h): 10 mg/dL
K (3 h): 4 meq/L
LDH (3 h): 67.8 IU/L
Na (3 h): 141.2 meq/L
PL (3 h): 140 mg/dL
RALB (3 h): 2.5 g/dL
TBIL (3 h): 0.066 mg/dL
TC (3 h): 79.8 mg/dL
TG (3 h): 51.6 mg/dL
TP (3 h): 5.2 g/dL
gamma-GTP (3 h): 1.2 IU/L
TERMINAL_BW (6 h): 198.7 g
APTT (6 h): 17 s
Bas (6 h): 0%
Eos (6 h): 0.8%
Fbg (6 h): 290.6 mg/dL
Hb (6 h): 13.2 g/dL
Ht (6 h): 40.6%
Lym (6 h): 75.8%
MCH (6 h): 20.8 pg
MCHC (6 h): 32.4%
MCV (6 h): 64 fL
Mono (6 h): 3%
Neu (6 h): 19.6%
PT (6 h): 13.5 s
Plat (6 h): 124.8 x10_4/uL
RBC (6 h): 635 x10_4/ul
Ret (6 h): 8.7%
WBC (6 h): 86.3 x10_2/uL
KIDNEY_L (6 h): 0.9 g
KIDNEY_R (6 h): 0.9 g
KIDNEY_TOTAL (6 h): 1.8 g
LIVER (6 h): 8.2 g
A/G (6 h): 0.9
ALP (6 h): 1441 IU/L
ALT (6 h): 35 IU/L
AST (6 h): 70 IU/L
BUN (6 h): 9.6 mg/dL
CRE (6 h): 0.2 mg/dL
Ca (6 h): 10.8 mg/dL
Cl (6 h): 104 meq/L
DBIL (6 h): 0.004 mg/dL
GLC (6 h): 160.4 mg/dL
IP (6 h): 10.5 mg/dL
K (6 h): 4 meq/L
LDH (6 h): 57 IU/L
Na (6 h): 141.4 meq/L
PL (6 h): 133.6 mg/dL
RALB (6 h): 2.5 g/dL
TBIL (6 h): 0.058 mg/dL
TC (6 h): 71 mg/dL
TG (6 h): 38.6 mg/dL
TP (6 h): 5.2 g/dL
gamma-GTP (6 h): 1 IU/L
TERMINAL_BW (9 h): 195.2 g
APTT (9 h): 17 s
Bas (9 h): 0.4%
Eos (9 h): 0.8%
Fbg (9 h): 292.8 mg/dL
Hb (9 h): 13.5 g/dL
Ht (9 h): 42%
Lym (9 h): 80.4%
MCH (9 h): 20.7 pg
MCHC (9 h): 32%
MCV (9 h): 64.8 fL
Mono (9 h): 2.2%
Neu (9 h): 15.6%
PT (9 h): 13.4 s
Plat (9 h): 119.8 x10_4/uL
RBC (9 h): 650.2 x10_4/ul
Ret (9 h): 8.7%
WBC (9 h): 84.7 x10_2/uL
KIDNEY_L (9 h): 1 g
KIDNEY_R (9 h): 0.9 g
KIDNEY_TOTAL (9 h): 1.9 g
LIVER (9 h): 7.7 g
A/G (9 h): 0.9
ALP (9 h): 1353.2 IU/L
ALT (9 h): 36.8 IU/L
AST (9 h): 76 IU/L
BUN (9 h): 8.6 mg/dL
CRE (9 h): 0.2 mg/dL
Ca (9 h): 10.3 mg/dL
Cl (9 h): 105.4 meq/L
DBIL (9 h): 0 mg/dL
GLC (9 h): 169.8 mg/dL
IP (9 h): 10.7 mg/dL
K (9 h): 3.8 meq/L
LDH (9 h): 61 IU/L
Na (9 h): 141.4 meq/L
PL (9 h): 131.4 mg/dL
RALB (9 h): 2.4 g/dL
TBIL (9 h): 0.06 mg/dL
TC (9 h): 77 mg/dL
TG (9 h): 36.2 mg/dL
TP (9 h): 5.2 g/dL
gamma-GTP (9 h): 1.2 IU/L
TERMINAL_BW (24 h): 210.8 g
APTT (24 h): 17.1 s
Bas (24 h): 0%
Eos (24 h): 1%
Fbg (24 h): 248.4 mg/dL
Hb (24 h): 13.1 g/dL
Ht (24 h): 40.2%
Lym (24 h): 76%
MCH (24 h): 21.3 pg
MCHC (24 h): 32.6%
MCV (24 h): 65.2 fL
Mono (24 h): 3.4%
Neu (24 h): 18.8%
PT (24 h): 13.3 s
Plat (24 h): 121 x10_4/uL
RBC (24 h): 617.4 x10_4/ul
Ret (24 h): 7.8%
WBC (24 h): 102.2 x10_2/uL
KIDNEY_L (24 h): 0.9 g
KIDNEY_R (24 h): 0.9 g
KIDNEY_TOTAL (24 h): 1.8 g
LIVER (24 h): 9.9 g
A/G (24 h): 0.9
ALP (24 h): 1736 IU/L
ALT (24 h): 42.2 IU/L
AST (24 h): 71.8 IU/L
BUN (24 h): 13.4 mg/dL
CRE (24 h): 0.2 mg/dL
Ca (24 h): 10.9 mg/dL
Cl (24 h): 104.8 meq/L
DBIL (24 h): 0.012 mg/dL
GLC (24 h): 176.4 mg/dL
IP (24 h): 8 mg/dL
K (24 h): 3.9 meq/L
LDH (24 h): 60.6 IU/L
Na (24 h): 142.6 meq/L
PL (24 h): 134.8 mg/dL
RALB (24 h): 2.6 g/dL
TBIL (24 h): 0.062 mg/dL
TC (24 h): 71.2 mg/dL
TG (24 h): 74 mg/dL
TP (24 h): 5.4 g/dL
gamma-GTP (24 h): 1 IU/L
